Test results as given in PubChem BioAssay AID1963443 (Molecular Pharmacology Branch, DTP, NCI, 2024).
“And” between values parts separate entries of the source, which are not always exact repeats. Identical values can stand only once.

System: MDA-MB-231 complex spheroids, growth inhibition
Assay: Anticancer human tumor MDA-MB-231 cell line growth inhibition [Asc];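 note: spheroids exposed to compounds for 7 days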
Settings: for viability, T/C: stronger effect = lower value
Outline: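 Concentration series start at each agent's clinical Cmax, or at 10 microM when none is established, and drop in half-log steps; agents are applied alone or together to complex spheroids built with HUVEC and hMSC.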

## NC(=O)C(=Cn1cnc(-c2cc(C(F)(F)F)cc(C(F)(F)F)c2)n1)c1cncnc1 + CCN1C(C(=O)NC23CCC(C(=O)O)(CC2)CC3)C(c2cccc(Cl)c2F)C2(C(=O)Nc3cc(Cl)ccc32)C12CCCCC2
Curve of first compound, second compound 0.03 µM
  IC50: 78.3 nM
Curve of first compound, second compound 0.0949 µM
  IC50: 70.5 nM
Curve of first compound, second compound 0.3 µM
  IC50: 84.7 nM
Curve of first compound, second compound 0.949 µM
  IC50: 84.5 nM
Curve of first compound, second compound 3 µM
  IC50: 67.4 nM
Second compound 0.03 µM, first compound 0.000949 µM
  viability, T/C: 103%
Second compound 0.03 µM, first compound 0.003 µM
  viability, T/C: 92.8%
Second compound 0.03 µM, first compound 0.00949 µM
  viability, T/C: 82.4%
Second compound 0.03 µM, first compound 0.03 µM
  viability, T/C: 60%
Second compound 0.03 µM, first compound 0.0949 µM
  viability, T/C: 52.5%
Second compound 0.03 µM, first compound 0.3 µM
  viability, T/C: 23.6%
Second compound 0.0949 µM, first compound 0.000949 µM
  viability, T/C: 111%
Second compound 0.0949 µM, first compound 0.003 µM
  viability, T/C: 103%
Second compound 0.0949 µM, first compound 0.00949 µM
  viability, T/C: 90.4%
Second compound 0.0949 µM, first compound 0.03 µM
  viability, T/C: 62.6%
Second compound 0.0949 µM, first compound 0.0949 µM
  viability, T/C: 47.3%
Second compound 0.0949 µM, first compound 0.3 µM
  viability, T/C: 21.7%
Second compound 0.3 µM, first compound 0.000949 µM
  viability, T/C: 112%
Second compound 0.3 µM, first compound 0.003 µM
  viability, T/C: 102%
Second compound 0.3 µM, first compound 0.00949 µM
  viability, T/C: 87%
Second compound 0.3 µM, first compound 0.03 µM
  viability, T/C: 63.1%
Second compound 0.3 µM, first compound 0.0949 µM
  viability, T/C: 52.5%
Second compound 0.3 µM, first compound 0.3 µM
  viability, T/C: 25%
Second compound 0.949 µM, first compound 0.000949 µM
  viability, T/C: 117%
Second compound 0.949 µM, first compound 0.003 µM
  viability, T/C: 107%
Second compound 0.949 µM, first compound 0.00949 µM
  viability, T/C: 93.4%
Second compound 0.949 µM, first compound 0.03 µM
  viability, T/C: 66.9%
Second compound 0.949 µM, first compound 0.0949 µM
  viability, T/C: 50.4%
Second compound 0.949 µM, first compound 0.3 µM
  viability, T/C: 26.8%
Second compound 3 µM, first compound 0.000949 µM
  viability, T/C: 102%
Second compound 3 µM, first compound 0.003 µM
  viability, T/C: 94.2%
Second compound 3 µM, first compound 0.00949 µM
  viability, T/C: 79.4%
Second compound 3 µM, first compound 0.03 µM
  viability, T/C: 59.9%
Second compound 3 µM, first compound 0.0949 µM
  viability, T/C: 46.9%
Second compound 3 µM, first compound 0.3 µM
  viability, T/C: 31.6%

## O=C(c1ccc(F)c(F)c1Nc1ccc(I)cc1F)N1CC(O)([C@@H]2CCCCN2)C1
Compound 0.00316 µM
  viability, T/C: 86.9% and 79.8% and 88.6%
Compound 0.01 µM
  viability, T/C: 56.7% and 67.7% and 55.5%
Compound 0.0316 µM
  viability, T/C: 47.7% and 58.3% and 33.5%
Compound 0.1 µM
  viability, T/C: 43.8% and 50.7% and 21.9%
Compound 0.316 µM
  viability, T/C: 29.6% and 30.4% and 22.2%
Compound 1 µM
  viability, T/C: 2.86% and 5.09% and 7.27%
Curve of compound
  IC50: 37 nM and 83.1 nM and 13.6 nM

## Cc1nc(N2CCC3(CC2)COC(C)C3N)c(CO)nc1Sc1ccnc(N)c1Cl (centres undefined) + CNC(C)C(=O)NC1CN(S(=O)(=O)c2cccc(S(=O)(=O)N3CCC4CCC(C(=O)NC(c5ccccc5)c5ccccc5)N4C(=O)C(NC(=O)C(C)NC)C3)c2)CCC2CCC(C(=O)NC(c3ccccc3)c3ccccc3)N2C1=O
Curve of first compound, second compound 0.00316 µM
  IC50: < 9.49 nM
Curve of first compound, second compound 0.01 µM
  IC50: < 9.49 nM
Curve of first compound, second compound 0.0316 µM
  IC50: < 9.49 nM
Curve of first compound, second compound 0.1 µM
  IC50: < 9.49 nM
Curve of first compound, second compound 0.316 µM
  IC50: 496 nM
Curve of first compound, second compound 1 µM
  IC50: 487 nM
Second compound 0.00316 µM, first compound 0.00949 µM
  viability, T/C: 6.2%
Second compound 0.00316 µM, first compound 0.03 µM
  viability, T/C: 3.59%
Second compound 0.00316 µM, first compound 0.0949 µM
  viability, T/C: 3.91%
Second compound 0.00316 µM, first compound 0.3 µM
  viability, T/C: 2.35%
Second compound 0.00316 µM, first compound 0.949 µM
  viability, T/C: 1.9%
Second compound 0.00316 µM, first compound 3 µM
  viability, T/C: 0.75%
Second compound 0.01 µM, first compound 0.00949 µM
  viability, T/C: 3.06%
Second compound 0.01 µM, first compound 0.03 µM
  viability, T/C: 1.64%
Second compound 0.01 µM, first compound 0.0949 µM
  viability, T/C: 2.31%
Second compound 0.01 µM, first compound 0.3 µM
  viability, T/C: 2.09%
Second compound 0.01 µM, first compound 0.949 µM
  viability, T/C: 1.16%
Second compound 0.01 µM, first compound 3 µM
  viability, T/C: 1.06%
Second compound 0.0316 µM, first compound 0.00949 µM
  viability, T/C: 1.57%
Second compound 0.0316 µM, first compound 0.03 µM
  viability, T/C: 2.27%
Second compound 0.0316 µM, first compound 0.0949 µM
  viability, T/C: 1.35%
Second compound 0.0316 µM, first compound 0.3 µM
  viability, T/C: 1%
Second compound 0.0316 µM, first compound 0.949 µM
  viability, T/C: 2.18%
Second compound 0.0316 µM, first compound 3 µM
  viability, T/C: 1.27%
Second compound 0.1 µM, first compound 0.00949 µM
  viability, T/C: 1.75%
Second compound 0.1 µM, first compound 0.03 µM
  viability, T/C: 1.36%
Second compound 0.1 µM, first compound 0.0949 µM
  viability, T/C: 0.97%
Second compound 0.1 µM, first compound 0.3 µM
  viability, T/C: 0.62%
Second compound 0.1 µM, first compound 0.949 µM
  viability, T/C: 1.23%
Second compound 0.1 µM, first compound 3 µM
  viability, T/C: 1.82%
Second compound 0.316 µM, first compound 0.00949 µM
  viability, T/C: 108%
Second compound 0.316 µM, first compound 0.03 µM
  viability, T/C: 101%
Second compound 0.316 µM, first compound 0.0949 µM
  viability, T/C: 108%
Second compound 0.316 µM, first compound 0.3 µM
  viability, T/C: 86.6%
Second compound 0.316 µM, first compound 0.949 µM
  viability, T/C: 2.83%
Second compound 0.316 µM, first compound 3 µM
  viability, T/C: 0.94%
Second compound 1 µM, first compound 0.00949 µM
  viability, T/C: 99.5%
Second compound 1 µM, first compound 0.03 µM
  viability, T/C: 113%
Second compound 1 µM, first compound 0.0949 µM
  viability, T/C: 99.9%
Second compound 1 µM, first compound 0.3 µM
  viability, T/C: 83.4%
Second compound 1 µM, first compound 0.949 µM
  viability, T/C: 3.91%
Second compound 1 µM, first compound 3 µM
  viability, T/C: 0.93%
